Laboratory results as given in the NIST ThermoML archive (doi:10.1021/je034007i).

How the values were obtained:
[1] = 308.15 K; 101.33 kPa; Liquid; vibrating tube
[2] = excess molar enthalpy (molar enthalpy of mixing); xn = mol fraction of the nth substance listed; conditions: 308.15 K, 101.3 kPa, Liquid

C[S+](C)[O-] [dimethyl sulfoxide]
Conditions	mass density [kg/m3]
[1]	1085.5

OCCO [1,2-ethanediol] + C[S+](C)[O-]
[2]
Conditions	excess molar enthalpy [kJ/mol]
x1 = 0.0506	-0.195
x1 = 0.0963	-0.367
x1 = 0.1378	-0.499
x1 = 0.1757	-0.614
x1 = 0.2423	-0.758
x1 = 0.2989	-0.851
x1 = 0.39	-0.916
x1 = 0.4601	-0.91
x1 = 0.5612	-0.828
x1 = 0.6574	-0.705
x1 = 0.7189	-0.614
x1 = 0.7933	-0.495
x1 = 0.8365	-0.415
x1 = 0.8847	-0.305
x1 = 0.911	-0.249
x1 = 0.9388	-0.184
x1 = 0.9685	-0.099

OCCOCCO [diethylene glycol] + C[S+](C)[O-]
[2]
Conditions	excess molar enthalpy [kJ/mol]
x1 = 0.0303	-0.105
x1 = 0.0588	-0.199
x1 = 0.0857	-0.278
x1 = 0.1111	-0.349
x1 = 0.1579	-0.456
x1 = 0.2	-0.536
x1 = 0.2727	-0.629
x1 = 0.3332	-0.665
x1 = 0.4285	-0.679
x1 = 0.5295	-0.645
x1 = 0.6	-0.608
x1 = 0.6923	-0.517
x1 = 0.75	-0.467
x1 = 0.8182	-0.38
x1 = 0.8571	-0.319
x1 = 0.9	-0.251
x1 = 0.9474	-0.145

OCCOCCOCCO [triethylene glycol] + C[S+](C)[O-]
[2]
Conditions	excess molar enthalpy [kJ/mol]
x1 = 0.0217	-0.12
x1 = 0.0425	-0.225
x1 = 0.0625	-0.314
x1 = 0.0816	-0.395
x1 = 0.1176	-0.523
x1 = 0.1509	-0.629
x1 = 0.2104	-0.757
x1 = 0.2621	-0.831
x1 = 0.3477	-0.898
x1 = 0.4444	-0.897
x1 = 0.516	-0.864
x1 = 0.6153	-0.777
x1 = 0.6807	-0.703
x1 = 0.7618	-0.575
x1 = 0.81	-0.49
x1 = 0.8648	-0.384
x1 = 0.9275	-0.22

OCCOCCO [diethylene glycol]
Conditions	mass density [kg/m3]
[1]	1105.65

OCCOCCOCCO [triethylene glycol]
Conditions	mass density [kg/m3]
[1]	1112.1

CC(O)CO (configuration not stated) [1,2-propanediol]
Conditions	mass density [kg/m3]
[1]	1026.15

CC(O)CO (configuration not stated) [1,2-propanediol] + C[S+](C)[O-]
[2]
Conditions	excess molar enthalpy [kJ/mol]
x2 = 0.0389	-0.081
x2 = 0.0748	-0.163
x2 = 0.1082	-0.222
x2 = 0.1392	-0.27
x2 = 0.1921	-0.354
x2 = 0.2444	-0.402
x2 = 0.3267	-0.434
x2 = 0.3928	-0.423
x2 = 0.4925	-0.388
x2 = 0.5929	-0.33
x2 = 0.66	-0.289
x2 = 0.7444	-0.227
x2 = 0.7952	-0.187
x2 = 0.8535	-0.135
x2 = 0.8859	-0.0978
x2 = 0.9209	-0.0649
x2 = 0.9588	-0.0301
